Laboratory results published in ChEMBL document CHEMBL4483862, “Open-source discovery of chemical leads for next-generation chemoprotective antimalarials” (2018).

Test system: Plasmodium berghei
Assay: Luciferase/luciferin-expressing antifolate-resistant parasites were used to infect a culture of HepG2 cells that were pre-incubated with compounds. Infected hepatocytes emit light due to the luciferase reaction. Assay results are presented as the percent inhibition of light emission compared to control. […]
Format: functional
Conditions: sporozoite; for IC90: read-out: LUCIFERASE INFECTION ASSAY - IC90

With `COc1ccc(CCNC(=S)NC(=O)c2c(-c3ccccc3Cl)noc2C)cc1OC` the IC50 (PBLUC_HILL_SLOPE 1.8, PBLUC_R_SQUARED 0.103, read-out: LUCIFERASE INFECTION ASSAY - IC50) was > 7.17 µM and the IC90 was > 7.17 µM.
`CC(=O)c1ccc(-c2ccc(C(=O)N3CCCc4ccccc43)o2)cc1` gave an IC50 (PBLUC_HILL_SLOPE 1.77, PBLUC_R_SQUARED 0.773, read-out: LUCIFERASE INFECTION ASSAY - IC50) of 0.272 µM and an IC90 of 0.942 µM.
For `CC(C)(C)Nc1ncnc2sc(-c3ccccc3)cc12`, the IC50 (PBLUC_HILL_SLOPE 1.75, PBLUC_R_SQUARED 0.697, read-out: LUCIFERASE INFECTION ASSAY - IC50) was 4.97 µM and the IC90 was > 10 µM.
With `Cc1ccc(S(=O)(=O)Nc2cc(SCC(=O)O)c(O)c3ccccc23)cc1` the IC50 (PBLUC_HILL_SLOPE 1.74, PBLUC_R_SQUARED 0.143, read-out: LUCIFERASE INFECTION ASSAY - IC50) was > 10 µM and the IC90 was > 10 µM.
In the case of `CCN(Cc1ccccc1)S(=O)(=O)c1ccc2c(c1)CCCN2C(C)=O`, the IC50 (PBLUC_HILL_SLOPE 1.76, PBLUC_R_SQUARED 0.382, read-out: LUCIFERASE INFECTION ASSAY - IC50) is reported as 8.69 µM and the IC90 is reported as > 10 µM.
In the case of `CC(C)N1CCN(c2ccc(-c3cn4c(-c5ccc(O)cc5)cnc4cn3)cc2)CC1`, the IC50 (PBLUC_HILL_SLOPE 1.81, PBLUC_R_SQUARED 0.0513, read-out: LUCIFERASE INFECTION ASSAY - IC50) is reported as > 7.98 µM and the IC90 is reported as > 7.98 µM.
In the case of `CN(C)c1ccc(-c2cnc3cnc(-c4ccc(CNc5ccccc5)cc4)cn23)cc1`, the IC50 (PBLUC_HILL_SLOPE 1.8, PBLUC_R_SQUARED 0.529, read-out: LUCIFERASE INFECTION ASSAY - IC50) is reported as 4.22 µM and the IC90 is reported as > 7.87 µM.
With `Cc1[nH]c2ccccc2c1C(=O)C(C)Sc1ccc2c(c1)OCCCO2` (stereo not given) the IC50 (PBLUC_HILL_SLOPE 1.73, PBLUC_R_SQUARED 0.284, read-out: LUCIFERASE INFECTION ASSAY - IC50) was 3.18 µM and the IC90 was > 10 µM.
`COc1cc(/C=N/NC(=O)c2ccccc2NS(=O)(=O)c2cccs2)ccc1OCCC(C)C` showed an IC50 (PBLUC_HILL_SLOPE 1.78, PBLUC_R_SQUARED 0.852, read-out: LUCIFERASE INFECTION ASSAY - IC50) of 0.307 µM and an IC90 of 1.06 µM.
For `Cc1sc2nc(-c3cccs3)nc(N3CCN(C(=O)c4ccccc4)CC3)c2c1C`, the IC50 (PBLUC_HILL_SLOPE 1.78, PBLUC_R_SQUARED 0.529, read-out: LUCIFERASE INFECTION ASSAY - IC50) was 4.85 µM and the IC90 was > 10 µM.
For `O=C(c1ccccc1)C1CCN(C(=O)/C=C/c2cccc(Cl)c2Cl)CC1`, the IC50 (PBLUC_HILL_SLOPE 1.75, PBLUC_R_SQUARED 0.122, read-out: LUCIFERASE INFECTION ASSAY - IC50) was > 10 µM and the IC90 was > 10 µM.
In the case of `CN1CCC2(CC1)CC(Nc1ccc(C(F)(F)F)cc1[N+](=O)[O-])c1ccccc1O2` (stereo not given), the IC50 (PBLUC_HILL_SLOPE 1.75, PBLUC_R_SQUARED 0.131, read-out: LUCIFERASE INFECTION ASSAY - IC50) is reported as > 10 µM and the IC90 is reported as > 10 µM.
In the case of `N#C/C=C1\SCC(=O)N1CC(=O)c1ccc([N+](=O)[O-])cc1`, the IC50 (PBLUC_HILL_SLOPE 1.79, PBLUC_R_SQUARED 0.472, read-out: LUCIFERASE INFECTION ASSAY - IC50) is reported as 5.27 µM and the IC90 is reported as > 10 µM.
`FC(F)(F)c1nc(N2CCN(c3ccncc3)CC2)c2ccccc2n1` was tested, and the IC50 (PBLUC_HILL_SLOPE 1.73, PBLUC_R_SQUARED 0.515, read-out: LUCIFERASE INFECTION ASSAY - IC50) was 4.07 µM and the IC90 was > 10 µM.
`CCOC(=O)Cc1csc(SCC(=O)c2cc(C)n(-c3ccc4c(c3)OCO4)c2C)n1` was tested, and the IC50 (PBLUC_HILL_SLOPE 1.81, PBLUC_R_SQUARED 0.311, read-out: LUCIFERASE INFECTION ASSAY - IC50) was 4.63 µM and the IC90 was > 10 µM.
With `N#Cc1ccsc1NC(=O)CN1CCN(CC(=O)Nc2ccc(Cl)c(C(F)(F)F)c2)CC1` the IC50 (PBLUC_HILL_SLOPE 1.73, PBLUC_R_SQUARED 0.28, read-out: LUCIFERASE INFECTION ASSAY - IC50) was 5.03 µM and the IC90 was > 10 µM.
`COc1cc2[nH]c(CSc3nnc(-c4ccccc4F)n3C3CC3)nc(=O)c2cc1OC` was tested, and the IC50 (PBLUC_HILL_SLOPE 1.81, PBLUC_R_SQUARED 0.0649, read-out: LUCIFERASE INFECTION ASSAY - IC50) was > 10 µM and the IC90 was > 10 µM.
For `Fc1ccccc1-n1cnnc1SC(c1ccccc1)c1ccccc1`, the IC50 (PBLUC_HILL_SLOPE 1.8, PBLUC_R_SQUARED 0.792, read-out: LUCIFERASE INFECTION ASSAY - IC50) was 0.57 µM and the IC90 was 1.93 µM.
With `CC(NCc1ccc(N(C)CCO)cc1)c1ccc(-c2ccccc2)cc1` (stereo not given) the IC50 (PBLUC_HILL_SLOPE 1.73, PBLUC_R_SQUARED 0.432, read-out: LUCIFERASE INFECTION ASSAY - IC50) was 8 µM and the IC90 was > 10 µM.
`Cc1ccc(CSc2nnc(OC(=O)N(C)C)n2-c2cccc(Cl)c2)cc1` was tested, and the IC50 (PBLUC_HILL_SLOPE 1.76, PBLUC_R_SQUARED 0.153, read-out: LUCIFERASE INFECTION ASSAY - IC50) was 6.97 µM and the IC90 was > 8.19 µM.
For `CCC1CCCCN1CC(O)COC(c1ccc(Cl)cc1)c1ccc(Cl)cc1` (stereo not given), the IC50 (PBLUC_HILL_SLOPE 1.73, PBLUC_R_SQUARED 0.487, read-out: LUCIFERASE INFECTION ASSAY - IC50) was 5.6 µM and the IC90 was > 10 µM.
For `COc1ccc(-c2nc(-c3ccccc3)c(-c3ccccc3)[nH]2)cc1OCC(N)=O`, the IC50 (PBLUC_HILL_SLOPE 1.74, PBLUC_R_SQUARED 0.661, read-out: LUCIFERASE INFECTION ASSAY - IC50) was 6.3 µM and the IC90 was > 10 µM.
With `Fc1ccc(CNCC2(c3ccnc(-c4ccc(Cl)cc4)c3)CC2)cc1` the IC50 (PBLUC_HILL_SLOPE 1.81, PBLUC_R_SQUARED 0.142, read-out: LUCIFERASE INFECTION ASSAY - IC50) was > 10 µM and the IC90 was > 10 µM.
For `Cc1[nH]c(-c2ccccn2)nc(=O)c1CC(=O)OCc1nc2ccccc2s1`, the IC50 (PBLUC_HILL_SLOPE 1.8, PBLUC_R_SQUARED 0.582, read-out: LUCIFERASE INFECTION ASSAY - IC50) was 7.29 µM and the IC90 was > 10 µM.
For `CC1CCN(C(=O)c2csc(-c3ccco3)n2)c2ccccc2S1` (stereo not given), the IC50 (PBLUC_HILL_SLOPE 1.74, PBLUC_R_SQUARED 0.579, read-out: LUCIFERASE INFECTION ASSAY - IC50) was 2.14 µM and the IC90 was 7.59 µM.
In the case of `NC1=NC(=S)N=C(N)C1=C(CS(=O)(=O)c1ccccc1)c1ccccc1`, the IC50 (PBLUC_HILL_SLOPE 1.77, PBLUC_R_SQUARED 0.148, read-out: LUCIFERASE INFECTION ASSAY - IC50) is reported as > 8.58 µM and the IC90 is reported as > 8.58 µM.
In the case of `CC(C)(C)c1ccc(COc2cccnc2N=CNO)cc1`, the IC50 (PBLUC_HILL_SLOPE 1.74, PBLUC_R_SQUARED 0.362, read-out: LUCIFERASE INFECTION ASSAY - IC50) is reported as 6.6 µM and the IC90 is reported as > 11 µM.
In the case of `CCOC(=O)c1sc2nc(C)nc(N(C)Cc3ccccc3)c2c1C`, the IC50 (PBLUC_HILL_SLOPE 1.75, PBLUC_R_SQUARED 0.422, read-out: LUCIFERASE INFECTION ASSAY - IC50) is reported as 7.96 µM and the IC90 is reported as > 10 µM.
With `COc1ccc2c(=O)c(C(=O)N(C)Cc3ccc(F)c(F)c3)c[nH]c2c1` the IC50 (PBLUC_HILL_SLOPE 1.79, PBLUC_R_SQUARED 0.658, read-out: LUCIFERASE INFECTION ASSAY - IC50) was 1.38 µM and the IC90 was 4.7 µM.
With `Cc1cccc(/C=C2\CC(C#N)(c3ccccc3)C/C(=C\c3cccc(C)c3)C2=O)c1` (stereo not given) the IC50 (PBLUC_HILL_SLOPE 1.76, PBLUC_R_SQUARED 0.46, read-out: LUCIFERASE INFECTION ASSAY - IC50) was 9.05 µM and the IC90 was > 10 µM.
In the case of `COCCNc1cc(C(C)C)nc2c(-c3ccccc3)cnn12`, the IC50 (PBLUC_HILL_SLOPE 1.73, PBLUC_R_SQUARED 0.539, read-out: LUCIFERASE INFECTION ASSAY - IC50) is reported as 3.04 µM and the IC90 is reported as > 10.6 µM.
`O=C(Nc1ccccc1Nc1cc(-c2ccccc2)nn1-c1ccccc1)c1ccc([N+](=O)[O-])cc1` was tested, and the IC50 (PBLUC_HILL_SLOPE 1.78, PBLUC_R_SQUARED 0.355, read-out: LUCIFERASE INFECTION ASSAY - IC50) was 8.66 µM and the IC90 was > 10 µM.
`N#CN=c1nc(/C=C/c2ccccc2Cl)[nH]c(-c2ccccc2O)n1` was tested, and the IC50 (PBLUC_HILL_SLOPE 1.8, PBLUC_R_SQUARED 0.74, read-out: LUCIFERASE INFECTION ASSAY - IC50) was 1.26 µM and the IC90 was 4.29 µM.
`CN(C)c1ccc(NC(=O)C2(C)CCCCN2C)cc1` (stereo not given) was tested, and the IC50 (PBLUC_HILL_SLOPE 1.77, PBLUC_R_SQUARED 0.752, read-out: LUCIFERASE INFECTION ASSAY - IC50) was 6.68 µM and the IC90 was > 12 µM.
In the case of `COc1ccccc1CN1CCN2C(=O)[C@@H](Cc3ccc(O)cc3)NC(=O)[C@H]2C1`, the IC50 (PBLUC_HILL_SLOPE 1.8, PBLUC_R_SQUARED 0.229, read-out: LUCIFERASE INFECTION ASSAY - IC50) is reported as 4.45 µM and the IC90 is reported as > 8.34 µM.
Compound `Cc1nn(CC(=O)NNC(=O)CC23CC4CC(CC(C4)C2)C3)c(=O)c2ccccc12` has an IC50 (PBLUC_HILL_SLOPE 1.76, PBLUC_R_SQUARED 0.72, read-out: LUCIFERASE INFECTION ASSAY - IC50) of 2 µM and an IC90 of 6.96 µM.
Compound `COc1cccc(C(=O)Nc2ccc3nc(-c4cc(OC)c(OC)c(OC)c4)nn3c2)c1` has an IC50 (PBLUC_HILL_SLOPE 1.78, PBLUC_R_SQUARED 0.523, read-out: LUCIFERASE INFECTION ASSAY - IC50) of 2.22 µM and an IC90 of 7.64 µM.
In the case of `Cc1cnc(-c2nc(-c3ccccc3)c3n2CCN(Cc2ccc(C4CCCCO4)s2)C3)cn1` (stereo not given), the IC50 (PBLUC_HILL_SLOPE 1.74, PBLUC_R_SQUARED 0.822, read-out: LUCIFERASE INFECTION ASSAY - IC50) is reported as 3.61 µM and the IC90 is reported as > 7 µM.
With `Cc1noc(C)c1C(=O)OCC(=O)c1cc(C)n(-c2ccccc2F)c1C` the IC50 (PBLUC_HILL_SLOPE 1.73, PBLUC_R_SQUARED 0.622, read-out: LUCIFERASE INFECTION ASSAY - IC50) was 4.2 µM and the IC90 was > 10 µM.
`COc1ncccc1CNC(=O)C1=COCCO1` was tested, and the IC50 (PBLUC_HILL_SLOPE 1.77, PBLUC_R_SQUARED 0.251, read-out: LUCIFERASE INFECTION ASSAY - IC50) was 5.83 µM and the IC90 was > 10 µM.
